“Also recorded” adds a separate entry of the source. Read-outs that look alike come from different tables or passages of the source. Numbered stars: 1 amine (or outer) side, 2 acyl side, 3 side chain; on linkers, the order of the positions; unused ones are H or OH. Bridge positions count the residues as written; N and C are the ends. Square brackets hold non-standard residues; d marks the D form. Peptide text beside a SMILES is read from it. X1 = O=C(/C(=C\c1c[nH]c2ccccc12)N[*:1])[*:2]; X2 = CC(c1c[nH]c2ccccc12)C(N[*:1])C(=O)[*:2]; βAsp = O=C(O)[CH](CC(=O)[*:2])N[*:1]
Legend:
[1] = test system: Telomycin-resistant bacteria; assay: MIC by broth microdilution, telomycin-resistant strains; type: cell-based, S. aureus and B. subtilis; details: for activity against resistant strains: compared with telomycin A against sensitive strains
Description: (§1) FIG. 46 summarizes MICs of telomycin antibiotics (1-10). Sensitive and resistant strains were exposed to telomycins and MICs were measured by microdilution in CAMHB. MICs were determined after 16 h growth, and are shown in μg ml−1.
(§2) Minimum inhibitory concentrations (MICs) for telomycins were determined using broth microdilution in cation-adjusted Mueller Hinton broth (CAMHB). Bacillus subtilis strains were cultured at 28° C., and S. aureus strains were cultured at 37° C. […] For assessing the impact of treating strains with sodium chloride concentrations prior to telomycin, S. aureus was grown overnight in CAMHB containing 0, 0.5, 1, or 1.5 M NaCl and then MICs were recorded as described above.
To identify mutations that conferred resistance to telomycin, we isolated colonies of S. aureus Newman that appeared inside the zone of inhibition observed during telomycin disk diffusion assays. […] Genomic DNA was extracted from highly resistant isolates and their sensitive parental strain, and sequenced with an Illumina MiSeq platform. Sequences were compared using BreSeq, which exclusively identified mutations in the predominant, house-keeping cardiolipin synthase (cls2). Bacillus subtilis telomycin-resistant mutants were identified in a similar manner, and mutations in cardiolipin synthase were confirmed by sequencing PCR products of the two cardiolipin synthase genes: clsA and clsB. […] PCR primers used for the amplification of B. subtilis cardiolipin synthase genes are as follows— • clsAF: 5′-[…]-3′ (SEQ ID NO: 1); • clsAR: 5′-[…]-3′ (SEQ ID NO: 2); • clsBF: 5′-[…]-3′ (SEQ ID NO: 3); • clsBR: 5′-[…]-3′ (SEQ ID NO: 4). Structure Elucidation

Gram positive organisms = details: cited from earlier work
[2] = test system: Sensitive and resistant strains; assay: MICs of telomycin antibiotics (FIG. 46); type: cell-based
Description: as §1, §2

S. aureus [3] = assay: MIC by broth microdilution in CAMHB; type: cell-based
Description: as §2
(§3) (a) Structure of telomycin. […] Wild type S. aureus (OD 0.2) was exposed to 8 (1×MIC) or 256 μg ml^−1 (32×MIC) telomycin. Colony-forming units (CFUs) were taken before treatment (black) and after 90 min (white). Results are shown as ±s.d.; n=4; Two-tailed students t-test. P=0.0023. Data are representative of three independent experiments.

S. aureus [4] = assay: Colony forming unit (CFU) lysis assay; type: cell-based
Description: (§4) Cultures of S. aureus and B. subtilis were grown overnight in CAMHB. Starter cultures were used to inoculate fresh media and were grown to OD=0.2, after which they were transferred to 96-well plates. Cultures were serially diluted and plated on CAMHB agar to determine initial colony-forming units. Telomycin dissolved in DMSO was added to each well (1:100) and incubated for 90 min, followed by serial dilution and plating to determine colony-forming units. Results are shown as ±s.d.; n=4; Two-tailed students t-test.
as §3
(a) Mutating cardiolipin synthase provides spontaneous telomycin resistance. Wild type and spontaneously-resistant S. aureus (left) and B. subtilis (right) were exposed to 32×MIC concentrations of telomycin for 90 min. CFUs were taken before treatment (black) and after 90 min (white). Results are shown as ±s.d.; n=4; Two-tailed students t-test. P=0.0018. Data are representative of three independent experiments. […] Mixtures were incubated for 5 min before turbidity was measured using absorbance at 600 nm. […]

B. subtilis [5] = assay: Colony forming unit (CFU) lysis assay; type: cell-based; details: concentrations above the MIC
Description: as §4
(§5) (a) Mutating cardiolipin synthase provides spontaneous telomycin resistance. Wild type and spontaneously-resistant S. aureus (left) and B. subtilis (right) were exposed to 32×MIC concentrations of telomycin for 90 min. CFUs were taken before treatment (black) and after 90 min (white). Results are shown as ±s.d.; n=4; Two-tailed students t-test. P=0.0018. Data are representative of three independent experiments. […] Telomycin (final concentration 5 mM; 6.3 mg ml^−1) was mixed with CL, PG, PE, or PC at concentrations ranging from 0.125 to 5 mg ml^−1. Mixtures were incubated for 5 min before turbidity was measured using absorbance at 600 nm. […] Telomycin (0.1 mM) was exposed to lipids at concentrations ranging from 1 to 0.05 mM, then used to determine MICs against wild type B. subtilis. […] (d) Cardiolipin abolishes telomycin's antibacterial activity. […]

[6] = test system: Telomycin-resistant bacteria; assay: CFU lysis assay on spontaneously-resistant strains; type: cell-based, S. aureus and B. subtilis; details: 32×MIC, 90 min
Description: as §4, §5

HEK293 cells = assay: Cytotoxicity assay (Alamar Blue); type: cell-based, human; details: HEK293, 48 h
Description: HEK293 cells were obtained from the American Type Culture Collection (ATCC; ATCC CRL-1573) and maintained in Minimal Essential Media (MEM) Alpha modifications supplemented with 10% fetal bovine serum. […] Cells were cultured in 96-well plates containing 200 μL of media and 5000 cells per well. After 3 h of incubation, cells were treated with a serial dilution of telomycin A. Experiments were performed in duplicate with DMSO as a negative control and mitomycin C as a positive control. After 48 h incubation, 10% (22 μL) Alamar Blue (Life Technologies) was added and incubated with cells for 4 h at 37° C. Fluorescence was measured at an excitation wavelength of 530 nm and an emission wavelength of 590 nm and compared to a no-drug control.

sheep red blood cell = assay: Red blood cell (RBC) hemolysis assay; type: cell-based; details: 0.25% sheep RBC, 256 to 2 μg/mL, 1 h, 37° C.
Description: Hemolytic activity of telomycin was measured against a 0.25% sheep red blood cell (RBC, Fisher Scientific) suspension in phosphate-buffered saline. Telomycin was serially diluted from 256 to 2 μg/mL and incubated with the RBC suspension for 1 h at 37° C. in a polypropylene 96-well plate with conical wells. After 1 h, RBCs were pelleted (1000×g for 5 min) and the supernatant was transferred to a flat-bottom polystyrene 96-well plate, measuring absorbance at 540 nm. 1% Triton X-100 was used as a positive control, while DMSO alone and RBCs alone were used as negative controls.
A solution of 0.25% sheep red blood cell suspension in phosphate buffered saline was incubated for 1 h at 37° C. with either a serial dilution of telomycin, 1% Triton X100 (positive lysis control), DMSO alone (1%; negative lysis control), or without added content (negative lysis control). After 1 h RBCs were pelleted and lysis was assessed by measuring absorbance of the supernatant at 540 nm.

[7] = Turbidity of telomycin-lipid mixtures; type: binding; details: telomycin mixed with cardiolipin, absorbance at 600 nm, other lipids as contrast
Description: To measure the turbidity of telomycin-lipid mixtures, telomycin was dissolved in methanol at a concentration of 12.8 mg/mL, and cardiolipin (Sigma Aldrich; C0563; 98% pure), phosphatidylglycerol (Sigma Aldrich; 63371; ≥98% pure), phosphatidylcholine (Sigma Aldrich; P3556; ≥99% pure), and phosphatidylethanolamine (Sigma Aldrich; P7943; 97% pure) were dissolved in methanol at a concentration of 10 mg/mL. 20 μL of telomycin was mixed with 20, 10, 5, 1, or 0.5 μL of each lipid (final reaction volume 40 μL) in a flat-bottom polystyrene 96-well plate. Optical density (OD=600 nm) was measured after 10 min.
(§6) (a) Mutating cardiolipin synthase provides spontaneous telomycin resistance. Wild type and spontaneously-resistant S. aureus (left) and B. subtilis (right) were exposed to 32×MIC concentrations of telomycin for 90 min. CFUs were taken before treatment (black) and after 90 min (white). Results are shown as ±s.d.; n=4; Two-tailed students t-test. P=0.0018. Data are representative of three independent experiments. […] Telomycin (final concentration 5 mM; 6.3 mg ml^−1) was mixed with CL, PG, PE, or PC at concentrations ranging from 0.125 to 5 mg ml^−1. Mixtures were incubated for 5 min before turbidity was measured using absorbance at 600 nm. […] Telomycin (0.1 mM) was exposed to lipids at concentrations ranging from 1 to 0.05 mM, then used to determine MICs against wild type B. subtilis. […]

B. subtilis [8] = assay: Bioactivity of telomycin-lipid mixtures in liquid media (MIC); type: cell-based
Description: To assess the impact of various lipids on telomycin's antibacterial activity in liquid media, telomycin was dissolved in methanol at 12.8 mg/mL (approx. 10 mM) and 1 μL was added to a 96-well plate. Lipids were dissolved in methanol and 10 μL of 10, 5, 2, 1, or 0.5 mM lipid was added to each telomycin-containing well. CAMHB inoculated with B. subtilis was added to each well and serially diluted to determine the minimum inhibitory concentration of each telomycin-lipid mixture. Plates were incubated shaking at 28° C. for 16 h.
as §5

B. subtilis [9] = assay: Bioactivity of telomycin-lipid mixtures on solid agar (diffusion disks); type: cell-based; details: excess cardiolipin (2× molar equivalent)
Description: To assess the impact of various lipids on telomycin's antibacterial activity on solid agar, 10 μL of 10 mM telomycin was mixed with 10 μL of 20 mM cardiolipin (Sigma Aldrich; C0563; ≥98% pure), phosphatidylglycerol (Sigma Aldrich; 63371; ≥98% pure), phosphatidylcholine (Sigma Aldrich; P3556; ≥99% pure), or phosphatidylethanolamine (Sigma Aldrich; P7943; ≥97% pure). All compounds were dissolved in methanol. Mixtures were incubated for 10 min, then added to diffusion disks, allowed to dry, then placed on a CAMHB agar plate with B. subtilis as an indicator organism. The plate was incubated overnight at 28° C.
as §6

[10] = test system: Chinese Hamster ovary (CHO) cells; details: previous studies; cited from earlier work
[11] = in vivo, cited from earlier work

Molecule: CC(C)CC1NC(=O)C(C(C)c2c[nH]c3ccccc23)NC(=O)/C(=C\c2c[nH]c3ccccc23)NC(=O)C2CCCN2C(=O)CNC(=O)C(C)NC(=O)C(C(C)O)NC(=O)C(NC(=O)C(CO)NC(=O)CC(N)C(=O)O)C(C)OC(=O)C2CCCN2C1=O (stereo not drawn) [telomycin F] (βAsp-STTAGP[X1][X2]LP; ester 2-C; configuration not given here)
- activity against resistant strains [1]: comparable with the activity of telomycin A against sensitive strains

Molecule: di-5-methyltryptophan telomycin
- activity against resistant strains [1]: comparable with the activity of telomycin A against sensitive strains

Molecule: LL-AO341β
- activity relative to telomycin (Gram positive organisms): improved activity
- cross-resistance with other antibacterial agents (Gram positive organisms; previous observations): does not demonstrate cross-resistance

Molecule: N-carboxyfluorescein telomycin [fluorescein-labelled telomycin conjugate]
- antimicrobial activity relative to telomycin [2]: slight decrease

Molecule: telomycin A
- telomycin activity after growth in high salinity (S. aureus [3]; S. aureus grown in CAMHB with 0, 0.5, 1, or 1.5 M NaCl): improved
- MIC (S. aureus [3]; Wild type S. aureus): 8 µg/mL
- increase in MIC ([1]; telomycin-resistant bacteria generated with limited passaging, versus sensitive parent): 16 fold
- lysis of bacteria (S. aureus [4]; concentrations above the MIC): rapid lysis
- lysis (CFUs before and after treatment) (S. aureus [4]; wild type S. aureus OD 0.2, 256 μg ml^−1 (32×MIC), 90 min): lyses S. aureus at high concentrations
- lysis of bacteria (B. subtilis [5]): rapid lysis
- lysis of telomycin-resistant bacteria [6]: refractory to lysis
- cytotoxicity: not observed at concentrations up to (HEK293 cells): > 128 µg/mL
- hemolysis (sheep red blood cell): not hemolytic; also recorded: does not cause hemolysis
- hemolysis (sheep red blood cell; listed as Telomycin): not hemolytic; also recorded: does not Cause Hemolysis
- turbidity / precipitation with cardiolipin [7]: rapidly formed an opaque precipitant in a dose-dependent manner
- turbidity / precipitation with cardiolipin ([7]; listed as Telomycin): uniquely and rapidly acquire turbidity
- effect of phosphatidylglycerol on antibacterial activity of telomycin (B. subtilis [8]; phosphatidylglycerol in 10× molar excess): some protective effect
- effect of cardiolipin on antibacterial activity of telomycin (MIC) (B. subtilis [8]; telomycin 0.1 mM, lipids 1 to 0.05 mM): reduces telomycin's antibacterial activity in a dose-dependent manner
- effect of cardiolipin on antibacterial activity of telomycin (B. subtilis [9]): completely abolish; also recorded: abolishes
- toxicity: not observed at concentrations up to [10]: > 40 µg/mL
- efficacy in animal studies [11]: demonstrated efficacy; also recorded: demonstrated value in vivo
- toxicity in animals / mammals [11]: without apparent toxicity
- toxicity in animals / mammals ([11]; listed as Telomycin): not known to possess significant toxicity

Source: patent publication US11842798B2, “Natural product and genetic data analysis and discovery system, method and computational platform therefor” (priority 2015, dated 2023)
